Assay results from a melting point compilation (Tetko et al.; mined from patent text by program, amines drawn as free bases though some values may be those of a salt).

melting point	Compound
89.5 °C	CC(=O)CC(=O)Nc1ccc(Nc2ccccc2)cc1
128 to 148 °C	CCN1CC(CCN2CCOCC2)N(C)c2ccccc2C1=O (centres undefined)
142 to 143 °C	CC(C)CCC(O)C(C)C1CC=C2C3=C(CCC21C)C1(C)CCC(OC(=O)c2ccccc2)C(C)(C)C1CC3 (centres undefined)
132 to 134 °C	CNc1scc(C)c1C(=O)c1ccccc1Cl
166 to 169 °C	CC(C)(C)OC(=O)N1CCC(c2nc3cc(-c4ccc(C(F)(F)F)cc4)ccc3o2)CC1
165 to 167 °C	CN(C(=O)CN1C(=O)C(NC(=O)Nc2cccc(C#N)c2)N=C(CN2CCOCC2)c2ccccc21)c1ccccc1 (centres undefined)
94 to 95 °C	COCCNC(=O)c1ccnc(-c2cccc3cc(Cc4cccc(C(F)(F)F)c4)sc23)c1F
159 to 160 °C	Cc1nc2c(OCc3ccccc3)cc(C(=O)N(C)C)cc2n1C
131 to 134 °C	Cc1cn(C(C)(C)C(=O)N(C)C)nc1-c1ccco1
208 to 210 °C	CCOC(=O)C1CCN(c2nnc(NCc3ccc(OC)c(Cl)c3)c3cc([N+](=O)[O-])ccc23)CC1
126 to 128 °C	O=S1(=O)NC(c2ccccc2)Nc2ccccc21 (centres undefined)
84 to 86 °C	COC(=O)C=Cc1cc2ccccc2o1
100 to 125 °C	COc1cc2c(cc1Nc1ncc(Cl)c(Nc3cc(C#N)ccc3OC)n1)CCN(CC(N)=O)CC2
156 to 158 °C	COc1cccc(CCc2c(C(=O)O)ccc(OC)c2OC)c1
175 to 177 °C	CCOC1(C(N)=O)c2ccccc2S(=O)(=O)N1Cc1ccc(Br)cc1F (centres undefined)
66 to 68 °C	C#CCNc1cccc2c1OC(F)(F)O2
241 °C	CCS(=O)(=O)c1ccc2cc(C(=O)O)ccc2c1
182 °C	O=S(=O)(c1cn(-c2c(Cl)cc(C(F)(F)F)cc2Cl)c(Cl)n1)C(F)(F)F
99 °C	Nc1cc(=O)n(Cc2ccc(OC(F)(F)F)cc2)[nH]1
151 to 152 °C	CCOC(=O)c1c(C)cc2c(=O)n(-c3ccccc3Cl)cnc2c1C

melting point	Compound
113 to 114 °C	CN1CC(=O)Nc2ccccc2C1
172 °C	CCCCOc1ccc(Cl)cc1C(=O)NCc1ccc(CC(=O)O)cc1
126 to 129 °C	CCOC(=O)[C@H]1O[C@@H]1C(=O)N[C@H](CNC(=O)c1ccccc1)CC(C)C
229 to 230 °C	CCOC(=O)C(=O)Nc1ccc(C(N)=O)c(C(N)=O)c1
109 to 111 °C	O=C(CCC(=O)c1ccccc1)NC1CCCCC1
131 to 132 °C	O=C(c1ccc(-n2cncn2)cc1)N1CCC(NCCc2ccc(Cl)cc2)CC1
262 to 264 °C	O=S1(=O)NC(C2CCCCC2)Nc2ccc(S(=O)(=O)N3CCCCC3)cc21 (centres undefined)
44.5 to 46.5 °C	COc1ccccc1I
204 to 206 °C	Cn1c(=O)c(N=C=O)c(-c2ccccc2Cl)c2cc(Cl)ccc21
123 to 126 °C	O=C(COc1ccc2c(c1)OCO2)c1ccccc1
236 °C	Cc1cc(O)cc(-c2nn(CC#N)cc2-c2cc(NC[C@H](C)O)nc(-c3cccnc3)n2)c1
185 to 187 °C	COc1cc(N)c(Cl)cc1C(=O)NC1CCN(C)C1 (centres undefined)
121 °C	C#CCNC(=O)N1CC(c2cccc(C(F)(F)F)c2)C1
112 °C	CCOC(=O)C1=C(C)NN=C(CC)C1c1ccccc1Cl (centres undefined)
227 to 229 °C	CCn1nc(C2CC2)c(C(=O)O)c1Cc1ccc(-c2ccccc2-c2nnn[nH]2)cc1
88 to 90 °C	COc1ccc(-c2cccc(COCCc3cccc(NS(=O)(=O)C(F)(F)F)c3)c2)cc1
126 °C	COc1ccc2c(C(C)C(=O)OC3CC(=O)NC3=O)cccc2c1 (centres undefined)
155 to 157 °C	CCCCCCNCc1ccc(COc2cccc3c2CN(C2CCC(=O)NC2=O)C3=O)cc1 (centres undefined)
96 to 98 °C	COc1ccc(CCNC(=O)C(F)(F)F)cc1S(=O)(=O)Cl
178 to 183 °C	O=C(O)c1ccc(NCC=Cc2ccccc2)cn1

Further lines, the compound ahead of its results:

Compound	melting point
O=C(c1ccc(-c2ccncc2)cc1)N1CCN(S(=O)(=O)c2nc3ccc(Cl)cc3[nH]2)CC1	242 to 244 °C
Cn1nc(-c2ccccc2)c(OC(C)(C)C)c1-c1ccccc1	106 to 108 °C
OCC1(CO)CC=CC1	168 to 170 °C
Nc1ccc(OCc2ccc(Cl)nc2)cc1F	101 °C
CC(C)c1cccc(C(C)C)c1NC(=O)C(NCc1ccccc1)c1ccccc1 (centres undefined)	134 to 137 °C
COc1cccc(-c2c(Cl)cccc2Cl)c1OC	49 to 50 °C
CCOc1ccc(N2CCN(c3c(C)c4c(c(OC)c3C)OC(C)C4)CC2)cc1 (centres undefined)	117 to 119 °C
CCOC(=O)/C=C(\c1ccc(C)cc1)c1ccc(OC)c(OC)c1	69 to 70 °C
NC(=O)Nc1ccc(C2=NNC(=O)Cc3cc4c(cc32)OCO4)cc1	238 to 241 °C
CCn1ncnc1COc1nn2c(-c3ccccc3F)nncc2c1-c1cccs1	190 to 192 °C
CCN(CCNC(=O)c1ccnc(F)c1)CCNC(=O)c1cnc2cc(I)ccc2n1	146 to 148 °C
O=C(c1cccc(-c2cc3ccccc3n2S(=O)(=O)c2ccccc2)c1)c1cc2ccccc2n1S(=O)(=O)c1ccccc1	189 to 190 °C
COc1ccn2nc(S(=O)(=O)Cl)nc2n1	110 to 112 °C
CC1=C(C(=O)OC(C)(C)C)C(c2cc(Br)ccc2F)C(C(=O)OC(C)(C)C)=C(C)N1	173 to 174 °C
COc1cccc(C=C2OC(=O)c3ccccc32)c1	119 to 123 °C
CN1CCC2=C(C=CCC2)C(N)C1=O (centres undefined)	69 to 81 °C
c1cnn(Cc2ccc3c(c2)Cc2c(-c4ccsc4)n[nH]c2-3)n1	238 to 241 °C
OCC1OC(n2cnc3c(NCC4(c5cccs5)CCC4)ncnc32)C(O)C1O (centres undefined)	84 to 92 °C
C#Cc1cccc(Oc2ccc3c(c2)C(=O)N(c2cccc(C#C)c2)C3=O)c1	150 to 160 °C
COc1ccc(-c2c(Cl)ncn2-c2ccc(S(C)(=O)=O)cc2)c(F)c1	176 to 198 °C

Compound	melting point
O=C(C=P(c1ccccc1)(c1ccccc1)c1ccccc1)CSc1ccccc1	132 to 134 °C
Clc1ccc2[nH]c(SCc3nc4ccccc4s3)nc2c1	176 to 180 °C
CC(C)Cc1cc2cc(OCC(=O)O)c(Cl)c(Cl)c2s1	164 to 165 °C
COC(=O)c1cc(C(C)(C)C)c(O[Si](C)(C)Oc2c(C(C)(C)C)cc(C(=O)OC)cc2C(C)(C)C)c(C(C)(C)C)c1	197 to 198 °C
COc1ccc(CCCN2C=CC=C3C2=Nc2cc(C)ccc2S(=O)(=O)N3C)cc1	130 to 131 °C
O=C1CCC(N2Cc3c(OCc4nc(CN5CCOCC5)no4)cccc3C2=O)C(=O)N1 (centres undefined)	150 to 152 °C
COCc1ccc(Cc2cccc(-c3c(O)c4ccc(Cl)cc4[nH]c3=O)c2)cc1	276 to 278 °C
COc1cc(C)c(Cl)cc1C(C)=O	83 °C
CN(C)C1CCN(S(=O)(=O)c2ccc(Nc3ccnc4cc(Cl)ccc34)cc2)CC1	230 to 231 °C
CS(=O)(=O)c1ccc(-c2[nH]c3ccc(Cl)cc3c2-c2ccc(S(C)(=O)=O)cc2)cc1	173 to 175 °C
O=C1Nc2c(cc([N+](=O)[O-])cc2[N+](=O)[O-])C1c1ncnc2nn(C3CCCC3)cc12 (centres undefined)	> 300 °C
Cc1nc(-c2ccc(Br)cc2)n(-c2ccc(S(N)(=O)=O)cn2)n1	221 to 222 °C
COc1cccc2c1nc(C(F)F)n2-c1nc(Nc2cccnn2)nc(N2CCOCC2)n1	261 to 263 °C
CC1(CO)Cc2c(cc(C(C)(C)C)c(O)c2C(C)(C)C)O1 (centres undefined)	126 to 128 °C
O=[N+]([O-])c1cc(Cl)c(Cl)cc1NC1C=CCC1 (centres undefined)	85 to 86 °C
CCCCOc1nc2cccc(C(=O)OC)c2n1Cc1ccccc1-c1ccccc1-c1nnn[nH]1	146 to 148 °C
Cc1ccc(S(=O)(=O)Nc2cccc3cc(C(=O)Nc4ccccc4)[nH]c23)cc1	247 to 248 °C
CC(=O)c1cc(F)c(N)c(C#N)c1F	182 to 184 °C
CCC(=O)N[C@H]1CC[C@H](CCN2CCN(c3nccc4c3OCC4)CC2)CC1	196 °C
Cn1c(-c2ccc(-c3ccccc3)cc2)cnc1[C@H](Cc1ccccn1)N(C=O)c1cc2cc(Br)ccc2o1	180 to 182 °C

Compound	melting point
COC(=O)C(C(C)C)N(C)S(=O)(=O)c1ccc(-c2ccc([N+](=O)[O-])cc2)cc1 (centres undefined)	117 to 118 °C
c1ccc2c(c1)CCC1(CCOCC1)NC2	76 to 78 °C
CCCCCCCCNC(=O)Cc1c(C)cc(C(C)(C)C)c(O)c1C	101 to 104 °C
COc1cc2ccc(CO)c(-c3ccnc(Br)c3)c2cc1OC	150 to 153 °C
Nc1cc(SCc2ccccc2)ccc1[N+](=O)[O-]	113 to 115 °C
CCC(CC)C(c1ccnn1-c1ccccc1)N(C)S(=O)(=O)c1cc(Cl)c(Cl)s1 (centres undefined)	99 to 100 °C
CCc1n[nH]c(CCOc2ccc(S(C)(=O)=O)cc2)c1Oc1cc(C#N)cc(C#N)c1	88 to 90 °C
COc1cc(N2CCC(N3CCN(C)CC3)CC2)ccc1Nc1ncc2ccc(-c3cccc(S(=O)(=O)NC(C)(C)C)c3)n2n1	214 to 216 °C
CCC1N=C(c2ccccc2Cl)c2cc(CCC(=O)N3CCOCC3)sc2-n2c(C)nnc21 (centres undefined)	145 to 147 °C
Oc1cccc(-c2n[nH]c3ncnc(Nc4cccc(Cl)c4)c23)c1	118 to 119 °C
O=C(NCCC1=CCCCC1)NCCC1=CCCCC1	129 to 131 °C
CCCCOc1ccc(S(C)(=O)=O)cc1-c1nc2c(CC)n(CCOC)nc2c(=O)[nH]1	174 to 176 °C
CCOC(=O)c1cccc(Oc2ncccc2OCCCc2ccncc2O)c1	76 to 79 °C
CC12CCC=CC1=CCC1C2CCC2(C)C(c3cccnc3)=CCC12 (centres undefined)	110 to 112 °C
OCc1cnc(Cl)c(Cl)c1	72 to 75 °C
COc1ccc(-c2nsc(C(=O)O)c2C(=O)O)cc1OC	190 to 192 °C
CCCc1nc(C#N)c(C#N)[nH]1	141 to 144 °C
Cc1c(-c2cnc(N(C)C)nc2)ssc1=S	135 °C
Cc1cc(-c2nc3cccnn3c2-c2ccnc(NC(=O)c3ccc(Cl)cc3)c2)ccc1F	207 to 209 °C
